The target of data set [1] is T1, NLPPya (Pythium aphanidermatum, UniProt Q9SPD4). Nature of the data set: Surface plasmon resonance binding to immobilized NLPPya. To be noted: for SPR binding to NLPPya (in words): sensor-chip-immobilized NLPPya; for Kd: SPR, steady-state affinity model, 50 mM MES, 150 mM NaCl, 5% DMSO, pH 5.8. The procedure:
Biacore T100 equipped with the Series S Sensor chip CM5 (GE Healthcare) was used to assess the binding of compounds to NLPPya and NLPPp. The proteins were covalently immobilized to the chip using amine coupling. The surface was activated with a 10 min injection of a mixture of 1-ethyl-3-(3-dimethylaminopropyl) carbodiimide hydrochloride / N-hydroxysuccinimide (1:1). NLPs were immobilized on the second flow cell. The first flow cell was left empty to control any nonspecific compound binding to the dextran matrix. […] In total, 587 in-house compounds (Faculty of Pharmacy, University of Ljubljana) were dissolved in DMSO as stock solutions at a concentration of 10 mM and diluted in 50 mM 2-(N-morpholino)ethanesulfonic acid (MES) and 150 mM NaCl to a final concentration of 5% DMSO (pH 5.8) prior to SPR experiments. After washing the sensor surface with running buffer (50 mM MES, 150 mM NaCl, 5% DMSO, pH 5.8), the compounds were tested at two different concentrations: 20 and 200 μM. Certain compounds were tested at lower concentrations owing to their lower solubility in the running buffer. Each compound was injected for 1 min at a flow rate of 30 μL/min, and dissociation was monitored for another minute. […] In the next set of experiments, 67 selected compounds were titrated. The samples were injected for 1 min at a flow rate of 30 μL/min, and dissociation was monitored for another minute. The samples were typically injected at the following concentrations: 0, 12.5, 25, 50, 100, and 200 μM. At the end of each concentration series, 25 μM of compound was injected again to control the activity of the surface. Regeneration between individual injections was not needed for molecules that completely dissociated from the protein. When complete dissociation was not achieved, short pulses of 0.1% SDS were included. The obtained sensorgrams were analyzed using the Biacore T100 Evaluation software, and the steady-state affinity binding model was used to calculate affinity constants.
A general note: Surface plasmon resonance follows binding to a sensor surface in real time, without labels.

The test system of data set [2] is tobacco leaves. Nature of the data set: Tobacco leaf infiltration assay, compounds alone. It is filed as in vivo, Nicotiana tabacum. The following applies: 1 mM compound in 5% DMSO, 24 h. Here is the method: (§1) Tobacco plants (Nicotiana tabacum ‘White Burley’) were grown in a controlled growth chamber with supplementary light (70−90 μMm^-2s^-1) and a 16 h photoperiod with 22°C day and 20°C night temperatures at 75±2% humidity. Using blunt-ended syringe pressure infiltration, 100 μL of solution (either 400 nM NLPPp or 250 nM NLPPya in ultrapure water in the absence or presence of the compounds) was infiltrated abaxially into the leaves of 5−7-week-old tobacco plants (Nicotiana tabacum ‘White Burley’). 5% DMSO, NLP solutions, and appropriate compound dilutions were used as controls. The area on the upper side of the leaf, which was infiltrated with solutions, was labeled and checked for the presence of necrosis after 24 h. To thoroughly assess the effect of compound 6G7 on the level of leaf necrosis/chlorosis, 50 μL of 100 nM NLPPya solution without/with 500 μM or 1 mM 6G7 in 20 mM MES, 150 mM NaCl, pH 5.8, containing 10% DMSO was infiltrated. The level of leaf chlorosis was estimated using ImageJ software by calculating the ratio of the chlorotic area to the whole infiltrated area, both measured in squared pixels. Each value represents the average of sixteen infiltrations.

Data set [3] concerns the target T1, NLPPya. Nature of the data set: Tobacco leaf infiltration assay, NLPPya-induced necrosis/chlorosis. It is filed as in vivo. The following applies: 24 h; for effect on NLPPya-induced necrosis: 200 nM NLPPya, tobacco leaves. Here is the method:
as §1, with “([…]” for “(either 400 nM NLPPp or 250 nM NLPPya in ultrapure water in the absence or presence”, “To thoroughly assess the effect of compound 6G7 on the level of leaf necrosis/chlorosis, 50 μL of 100 nM NLPPya solution without/with 500 μM or 1 mM 6G7 in 20 mM MES, 150 mM NaCl, pH 5.8, containing 10% DMSO was infiltrated.” left out

Data set [4] relates to Phytophthora infestans. It is filed as in vivo. To be noted: for P. infestans infection spots on potato leaves (size and coloring): 1 mM compound applied with zoospores, 4 days; for P. infestans growth on potato leaves by real-time PCR: 1 mM compound, 4 days after infection, vs control compound 6E11. A general note: Quantitative PCR measures a nucleic acid by following its amplification.

In data set [5] the test system is Caco-2 cells. Nature of the data set: Caco-2 cell toxicity, MTT assay. The format is cell-based, human. To be noted: overnight. The procedure: (§2) Caco-2 cells were seeded onto microtiter 96-well plates at a density of 70,000 cells/mL in 50 µL of minimal essential medium (Sigma) supplemented with 10% fetal bovine serum (Sigma), 1% L-glutamine (Gibco), and 1% non-essential amino acids (Sigma). Cells were incubated for two days at 37 °C in a humidified atmosphere containing 5% CO2. Then the cells were treated with the selected compounds at different concentrations: 6G7 and 6C3 were added at concentrations of 0.0625, 0.125, 0.25, 0.5, 1, and 2 mM, and 7C8 at concentrations of 3.125, 6.25, 12.5, 25, 50, and 100 μM. The final DMSO concentration in the medium was adjusted as indicated by the solubility of individual compounds and was reduced proportionally with serial dilutions. The highest DMSO concentration in assays was 5%. After overnight incubation, the cell viability was assessed by the MTT assay. Briefly, 3-(4,5-dimethylthiazol-2-yl)-2,5-diphenyltetrazolium bromide (MTT) reagent was added to each well at a final concentration of 1 mg/mL and incubated for 3 h. The medium was then removed, and the formazan product of living cells was dissolved in DMSO. The absorbance was measured at 570 nm with a Fluostar Galaxy microplate reader. Three independent experiments with the compounds 6C3 and 7C8 and four independent experiments with the compound 6G7 were performed.

In data set [6] the target is T1, NLPPya. Briefly: STD-NMR binding to NLPPya. The following applies: 25°C. The procedure: STD-NMR experiments were performed with 8 μM NLPPya. A pseudo-2D version of a STD-NMR pulse sequence with DPFGSE water suppression for the interleave acquisition of on- (δ 0.2 ppm) and off-resonance (δ 40 ppm) spectra was used at 25°C with 512 scans. A 30 ms spin-lock filter was used for protein signal suppression. The STD spectra were obtained by subtracting the saturated spectra from the reference spectra. The STD effect was calculated by (I0-Isat)/I0, where I0 is the signal intensity in the off-resonance spectrum, Isat is the signal intensity in the on-resonance spectrum, and I0-Isat is the intensity of the STD-NMR spectrum. Appropriate control experiments in the absence of protein were performed to assure the absence of direct irradiation of the ligand. In the titration study, five STD experiments were performed with varying ligand concentrations (40, 80, 240, 400, and 560 μM).
The STD amplification factor (STD-AF) was determined according to Eq 1, where [L] is the ligand concentration, and [P] is the NLPPya concentration.
The hyperbolic behavior of the curves obtained from plotting STD-AF as a function of ligand concentration is appropriately described by Eq 2, where STD-AF is the STD amplification factor, αSTD is the maximum amplification factor, [L] is the ligand concentration, and KD is the dissociation constant. […]

Data set [7] concerns the target T1, NLPPya. Briefly: Ion leakage from tobacco leaf disks induced by NLPPya. To be noted: 100 nM NLPPya, conductivity after 2 h. The format is in vivo. Here is the method: Tobacco leaves were infiltrated with 100 nM NLPPya in 20 mM MES, 150 mM NaCl pH 5.8, preincubated for 10 min with 500 μM or 1 mM 6G7. Final concentration of DMSO in solution was 10%. After 10 min incubation, 2 leaf disks were punched out (Ø 6 mm) and transferred to 2 mL of deionized distilled water. After 30 min of shaking at 430 rpm, leaf disks were transferred to 1 mL of fresh deionized distilled water. Conductivity was measured after 2 h using SevenCompact Cond meter (Mettler Toledo). Mock treated samples were discs from leaves infiltrated with buffer containing 10% DMSO or 6G7. Each value represents the average of 12–18 independent experiments.

The nature of data set [8]: Caco-2 cell toxicity, MTT assay. The format is cell-based, human. To be noted: human, Caco-2, 12.5 μM, overnight, read-out: Caco-2 cell viability, of the untreated control. The procedure: as §2
The nature of data set [9]: Solubility in SPR running buffer. The format is physicochemical. The following applies: SPR running buffer containing 5% DMSO.

The structures appear in SMILES notation. Converted amounts (≈) assume the structure as drawn. “And” between values parts separate entries of the source, which are not always exact repeats. Identical values can stand only once. “Also recorded” adds a separate entry of the source.

T1 sequence (Q9SPD4 18-234 limits assumed): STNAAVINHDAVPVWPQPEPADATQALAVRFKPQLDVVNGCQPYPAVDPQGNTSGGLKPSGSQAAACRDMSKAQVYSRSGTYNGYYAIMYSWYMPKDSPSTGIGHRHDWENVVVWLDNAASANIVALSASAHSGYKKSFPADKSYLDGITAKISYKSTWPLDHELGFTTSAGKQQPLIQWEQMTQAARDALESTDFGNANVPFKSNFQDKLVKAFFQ

Take `Cc1ccc2occ(C3N[C@H](C(=O)O)CS3)c(=O)c2c1` (stereo partly drawn) [6C3, (4R)-2-(6-methyl-4-oxo-4H-chromen-3-yl)thiazolidine-4-carboxylic acid]: in [1], the “SPR binding to NLPPya (in words)” value is “stable binding”. For the same compound, the “toxic effects of compound alone on leaf tissue” value (“toxic effects of compound alone” below) in [2] was “did not affect the plant tissue”. Further, the “effect on NLPPya-induced necrosis” value in data set [3] (1 mM compound) is “inhibited”. Further, the “P. infestans infection spots on potato leaves (size and coloring)” value (“P. infestans infection spots” for short) in data set [4] is reported as “largely reduced or disappeared”. The “P. infestans growth on potato leaves by real-time PCR” value (shortened to “P. infestans growth on potato leaves”) in data set [4] is “significantly reduced”. Also, the “reduction of Caco-2 cell viability” value is recorded as 8% in data set [5] (1 mM) and 15% in data set [5] (2 mM). The “effect on Caco-2 cell viability” value in [5] (concentrations below 500 μM) is recorded as “did not affect cell viability”.
Consider `Cc1oc([C@@H](O)[C@H](O)[C@H](O)CO)cc1C(=O)O` [6E11, 2-methyl-5-((1S,2R,3R)-1,2,3,4-tetrahydroxybutyl)furan-3-carboxylic acid, reference compound], for which the “SPR binding to NLPPya (in words)” value in data set [1] is reported as “did not bind”. Moreover, in [2], the “toxic effects of compound alone” value is “did not affect the plant tissue”.
For orientation: Kd means the equilibrium constant for the complex coming apart. Lower therefore signals higher affinity. For `COc1ccc(Nc2ccccc2C(=O)O)cc1` [6G7, 2-((4-methoxyphenyl)amino)benzoic acid], the equilibrium dissociation constant (Kd) in [1] came out at 131 ± 36.4 µM; in [6] (STD-NMR titration, 8 μM NLPPya) it was 150 ± 7 µM. The “toxic effects of compound alone” value in data set [2] is on record as “did not affect the plant tissue”. Also, in data set [3] (100 nM NLPPya, 1 mM compound, buffer with 10% DMSO), the NLPPya-induced leaf chlorosis result is reported as “efficiently reduced”. In addition, the “effect on NLPPya-induced necrosis” value in data set [3] (1 mM compound) is on record as “inhibited”. Besides, the “P. infestans infection spots” value in data set [4] is “largely reduced or disappeared”. Further, the “P. infestans growth on potato leaves” value in [4] was “significantly reduced; also recorded: significantly inhibited”. Further, the “effect on Caco-2 cell viability” value in data set [5] (up to concentrations approximately 10 times higher than its KD for NLPs) is “did not affect cell viability; also recorded: non-toxic”. The “STD signals in the presence of NLPPya” value in [6] (400 μM ligand, 1:50 receptor-to-ligand ratio) was “clear STD signals”. The “ion leakage induced by NLPPya from tobacco cells” value in data set [7] (500 μM compound) and in data set [7] (1 mM compound) was “efficiently inhibit” throughout.
Broadly, the viability is the share of living cells, or the viability signal relative to a control. For orientation: solubility means the concentration that dissolves in the medium under given conditions. In the case of `O=C(Cc1c[nH]c2ccccc12)Nc1ccccc1CCOC(=O)Cc1c[nH]c2ccccc12` [7C8, 2-(2-(1H-indol-3-yl)acetamido)phenethyl 2-(1H-indol-3-yl)acetate], the Kd in data set [1] was 52.8 µM and ~50 µM. Moreover, the “toxic effects of compound alone” value in data set [2] is reported as “did not affect the plant tissue”. In addition, the “effect on NLPPya-induced necrosis” value in data set [3] (200 μM compound) is “inhibited”. Besides, in [4], the “P. infestans infection spots” value is “largely reduced or disappeared”; the “P. infestans growth on potato leaves” value was “significantly reduced”. The viability at 12.5 µM in data set [8] was determined as 20%. In addition, the “reduction of Caco-2 cell viability” value in data set [5] (3.125 μM) turned out to be 35%. Besides, the solubility limit entry in [9] was “poorly soluble at concentrations of >180”. Also, the solubility in data set [9] (pH 5.8, aqueous with cosolvent or surfactant or cyclodextrin, kinetic from dmso stock, read-out: solubility limit) is about 180 µM (≈ 81.3 µg/mL).

The record behind these values is PMC8078777 (PLoS Pathogens, 2021).
